These results are taken from US20090269416A1, “Compositions and Methods For Preventing or Treating Chronic Renal Failure in Felines With Hyperthyroidism” (HILL'S PET NUTRITION , INC., priority 2006, published 2009).

Molecules are shown by their SMILES.

For this test, the system named is cats diagnosed with hyperthyroidism. As to the kind of experiment: Six-week feeding/treatment study in hyperthyroid cats (Example 1): thyroid hormone profiles and serum chemistries. The following applies: six weeks. In kind it is in vivo. How it is done:
Food B1 and food B2 were mixed in a 1:1 ratio, thus resulting in food B. A group of five cats diagnosed with hyperthyroidism was fed food B for six weeks. Another live cats diagnosed with hyperthyroidism were given 2.5 mg methimazole orally once a day for six weeks while they were fed food B. Eight eats diagnosed with hyperthyroidism were given 2.5 mg methimazole orally once a day for six weeks while they were fed a commercially available cat food. The thyroid hormone profiles and serum chemistries of all cats were measured at zero, two, four, and six weeks.

The mark [1] stands for this setting: hyperthyroid cats, methimazole 2.5 mg orally once a day, food B fed.

Regarding `Cn1cc[nH]c1=S` [Methimazole, methimazole], under setting [1], the “Change in Serum Creatinine Levels” value was “+0.46 mg/dL” and the “Change in Serum Total T4 Levels” value was -20.3 nmol/L. Also, the “serum creatinine concentration relative to the normal creatinine concentration range” value (normal range 0.8-1.8 mg/dL) is recorded as “a bit higher than die 0.8-1.8 mg/dL normal creatinine concentration range”. Under “normal range printed as 10-55 nmol/dL”, the “serum total T4 concentration relative to the normal total T4 concentration range” value is on record as “did not reach the normal total T4 concentration range”.
